Laboratory results as given in patent US6313111A, “Substituted 6H-1,3,4-thiadiazine-2-amines, the use thereof as anaesthetising, cardiovascular and hypometabolic agents, and pharmaceutical composition containing them” (priority 1998, dated 2001).

Experiment: rectal (body) temperature of mice measured with medicinal electrothermometer TREM-1
Type: in vivo, mice of the BALB line
Experimental: In all cases tests were carried out on mice of the BALB line of 3-4 month age. […] In the case of water-soluble compounds, aqueous solutions of the test compounds were injected intraperitoneally (i.p.), while water-insoluble compounds were introduced orally (p.o.).
Rectal temperature changes (absolute magnitues in ° C.) were measured using a medicinal electrothermometer TREM-1 (Table 1). The rate of oxygen consumption was monitored by measuring concentration of oxygen in a closed testing unit with optic-acoustic gas analyser MN 5130. The data on oxygen consumption are given in percents relative to the starting content of oxygen taken as 100%. (Table 2).
Rectal temperature of mice was followed in dynamics after 5, 15, 30, 60, 120, 180, 240, 300, and 360 minutes (Table 3). […] The same decrease in temperature at 190 mg/kg dosage was reached after 15 minutes; in 1.5 hours it reached 22-25° C. and maintained this level over the next 5 hours, that is 13-17° C. below the initial value. After one day, body temperature was restored to the value of 94-96% of initial.

[1] = i.p., 0 min, mg/kg: cpd 1 190.0, cpd 2 178.0, cpd 5 190.0, cpd 6 160.0
[2] = i.p., 30 min, mg/kg: cpd 1 190.0, cpd 2 178.0, cpd 5 190.0, cpd 6 160.0
[3] = i.p., 60 min, mg/kg: cpd 1 190.0, cpd 2 178.0, cpd 5 190.0, cpd 6 160.0
[4] = i.p., 90 min, mg/kg: cpd 1 190.0, cpd 2 178.0, cpd 6 160.0
[5] = i.p., 120 min, mg/kg: cpd 1 190.0, cpd 2 178.0, cpd 5 190.0, cpd 6 160.0
[6] = i.p., 180 min, mg/kg: cpd 1 190.0, cpd 2 178.0, cpd 5 190.0, cpd 6 160.0
[7] = i.p., 240 min, mg/kg: cpd 1 190.0, cpd 2 178.0, cpd 5 190.0, cpd 6 160.0
[8] = i.p., 300 min, mg/kg: cpd 1 190.0, cpd 2 178.0, cpd 6 160.0
[9] = p.o., 0 min, mg/kg: cpd 4 437.0, cpd 5 328.0, cpd 6 407.0, cpd 8 435.0
[10] = p.o., 30 min, mg/kg: cpd 4 437.0, cpd 5 328.0, cpd 6 407.0, cpd 8 435.0
[11] = p.o., 60 min, mg/kg: cpd 4 437.0, cpd 5 328.0, cpd 6 407.0, cpd 8 435.0
[12] = p.o., 90 min, mg/kg: cpd 4 437.0, cpd 5 328.0, cpd 6 407.0
[13] = p.o., 120 min, mg/kg: cpd 4 437.0, cpd 5 328.0, cpd 7 407.0, cpd 8 435.0
[14] = p.o., 180 min, mg/kg: cpd 4 437.0, cpd 7 407.0, cpd 8 435.0
[15] = p.o., 240 min, mg/kg: cpd 4 437.0, cpd 7 407.0, cpd 8 435.0
[16] = p.o., 300 min, mg/kg: cpd 7 407.0, cpd 8 435.0

Molecule `CS(=O)(=O)O.c1ccc(C2=NN=C(N3CCOCC3)SC2)cc1` [Compound 2, 2-Morpholino-5-phenyl-6H-1,3,4-thiadiazine, mesilate] has a body temperature [1] of 38.0 °C, a body temperature [2] of 30.1 °C and a body temperature [3] of 26.7 °C. The body temperature [4] was 25.5 °C, the body temperature [5] was 26.9 °C and the body temperature [6] was 31.0 °C. For the same molecule, the body temperature [7] was 35.4 °C and the body temperature [8] was 35.4 °C.
`Br.Brc1cccc(C2=NN=C(N3CCOCC3)SC2)c1` [Compound 4, 2-Morpholino-5-(3-bromophenyl)-6H-1,3,4-thiadiazine, hydrobromide] showed a body temperature [9] of 38.0 °C, a body temperature [10] of 35.9 °C and a body temperature [11] of 33.8 °C. It also gave a body temperature [12] of 33.5 °C, a body temperature [13] of 32.9 °C and a body temperature [14] of 33.1 °C. For the same molecule, the body temperature [15] was 32.8 °C.
`Br.c1ccc(C2=NN=C(N3CCSCC3)SC2)cc1` [Compound 5, 2-Thiomorpholino-5-phenyl-6H-1,3,4-thiadiazine, hydrobromide] showed a body temperature [1] of 38.0 °C, a body temperature [2] of 28.0 °C and a body temperature [3] of 27.1 °C. For the same molecule, the body temperature [5] was 25.0 °C, the body temperature [6] was 23.3 °C and the body temperature [7] was 23.6 °C. It also gave a body temperature [9] of 38.0 °C, a body temperature [10] of 27.5 °C and a body temperature [11] of 26.0 °C. For the same molecule, the body temperature [12] was 24.0 °C and the body temperature [13] was 24.0 °C.
In the case of `CS(=O)(=O)O.c1ccc(C2=NN=C(N3CCSCC3)SC2)cc1` [Compound 6, 2-Thiomorpholino-5-phenyl-6H-1,3,4-thiadiazine, mesilate], the body temperature [1] is reported as 37.9 °C, the body temperature [2] is reported as 30.6 °C and the body temperature [3] is reported as 26.9 °C. For the same molecule, the body temperature [4] was 26.3 °C, the body temperature [5] was 25.8 °C and the body temperature [6] was 27.4 °C. For the same molecule, the body temperature [7] was 28.9 °C, the body temperature [8] was 30.9 °C and the body temperature [9] was 37.7 °C. The body temperature [10] was 34.0 °C, the body temperature [11] was 33.4 °C and the body temperature [12] was 32.6 °C.
`Br.CCOc1ccc(C2=NN=C(N3CCSCC3)SC2)cc1` [Compound 7, 2-Thiomorpholino-5-(4-ethoxyphenyl)-6H-1,3,4-thiadiazine, hydrobromide] gave a body temperature [13] of 33.5 °C, a body temperature [14] of 32.3 °C and a body temperature [15] of 30.6 °C. It also gave a body temperature [16] of 30.6 °C.
Molecule `Br.Brc1cccc(C2=NN=C(N3CCSCC3)SC2)c1` [Compound 8, 2-Thiomorpholino-5-(3-bromophenyl)-6H-1,3,4-thiadiazine, hydrobromide] has a body temperature [9] of 38.1 °C, a body temperature [10] of 35.2 °C and a body temperature [11] of 35.0 °C. For the same molecule, the body temperature [13] was 33.4 °C, the body temperature [14] was 33.5 °C and the body temperature [15] was 32.3 °C. It also gave a body temperature [16] of 33.9 °C.
